pEC50, pIC50: −log10 of the molar value. Like-named read-outs stand apart in the source and are kept apart here.
Legend:
PRC2 containing wt EZH2 = target: T1, PRC2 containing wt EZH2 (Homo sapiens, UniProt Q15910); test: EZH2 pep BSA Brij 4.0 LowE (IC50): 3H-SAM incorporation into biotinylated H3 peptide; type: biochemical
T1 construct: made in house
Procedure: EZH2 Pep BSA Brij 4.0 LowE (IC50):
Compound potencies were assessed through incorporation of ^3H-SAM into a biotinylated H3 peptide. Specifically, PRC2 containing wt EZH2 (20 pM), (pentameric complexes prepared in-house) was pre-incubated with ^3H-SAM (0.9 μM), 2 μM H3K27me3 activating peptide (H2N-RKQLATKAAR(Kme3)SAPATGGVKKP-amide) and compounds (as 10 point duplicate dose response titrations in DMSO, final assay 0.8% DMSO (v/v)) for 120 min in 50 mM Tris (pH 8.5), 1 mM DTT, 0.07 mM Brij-35, 0.1% BSA, and 0.8% DMSO in a total volume of 12.5 μl. Reaction was initiated with biotinylated H3 substrate peptide (H2N-RKQLATKAAR(Kme1)SAPATGGVKKP-NTPEGBiot) as a 2 μM stock in 12.5 μl of buffer and allowed to react at room temperature for 5 h. Quenching was accomplished by addition of 20 μl of STOP solution (50 mM Tris (pH 8.5), 200 mM EDTA, 2 mM SAH). 35 μl of the quenched solution was transferred to Streptavidin Flashplates, incubated overnight, washed, and read in a TopCount Reader (Perkin Elmer). IC50s were calculated relative to fully active and no enzyme control wells using non-linear least square four parameter fits.

H3K27me3 mark = test: H3K27me3 Alpha Hela Assay (AlphaLISA); type: cell-based; details: Hela cells, read-out: EZH2 Cell H3K27me3 Alpha HeLa (EC50 K27me3)
Procedure: EC50 Measurements for Inhibitors in HeLa Cell Assays
H3K27me3 Alpha Hela Assay (AlphaLISA). Ten different doses of each test compound (in a series of 3-fold dilutions) were plated in duplicate 384-well tissue culture treated plates (Catalog #781080; Greiner Bio One; Monroe, N.C.). Hela cells grown in culture were trypsinized and counted using a Countess® cell counter (Catalog # C10281; Life Technologies, Grand Island, N.Y.). Cell were diluted to 67,000 cells per mL in 10% DMEM (Catalog #10569-010 Life Technologies, Grand Island, N.Y.) and 15 μL (1,000 cells) were plated into each well using the Biotek MicroFlo™ Select Dispenser (BioTek Instruments, Inc. Vermont, USA),) of the 384-well plate. Plates were incubated at 37° C./5% CO2 for 72 hrs. One of the duplicate plates was processed for HeLa assay and the other for viability.
To the plate processed for AlphaLISA was added 5 μL per well Cell-Histone Lysis buffer (1×) (Catalog # AL009F1 Perkin Elmer; Waltham, Mass.) and the plate was incubated at RT for 30 minutes on a plate shaker with low speed (Model#4625-Q Thermo Scientific; Waltham, Mass.). Then, 10 μL per well Histone Extraction buffer (catalog # AL009F2; Perkin Elmer; Waltham, Mass.) was added and the plate further incubated at RT for 20 min on plate shaker with low speed. To each well was then added 10 μL per well of a 5× mix of anti-K27me3 acceptor beads plus Biotinylated anti-Histone H3 (C-ter) Antibody (diluted to 3 nM final) (Catalog #AL118 Perkin Elmer; Waltham, Mass.). Dilution of the acceptor beads and then anti-Histone H3 was with 1× Histone Detection buffer (Catalog # AL009F3 Perkin Elmer; Waltham, Mass.) which was produced diluted from the 10× stock provided. The plate was sealed with an aluminum plate sealer and incubated at 23° C. for 60 min. We then added 10 μL 5× solution of Streptavidin Donor beads (Catalog #6760002 Perkin Elmer; Waltham, Mass.) (20 μg/mL final in 1× Histone Detection Buffer), sealed the plate with Aluminum plate sealer and incubated at 23° C. for 30 min. The plates were then read using an EnVision-Alpha Reader (model #2104 Perkin Elmer; Waltham, Mass.).
Data from both assays was analyzed using Assay Assistant (Constellation Pharmaceuticals In-house product) and Activity Base (IDBS Ltd, Surrey, UK) template. Data files were imported to Assay Assistant and assay conditions were specified. A unique Analysis ID was created and the data files exported to Activity Base. An analysis template was created on Activity Base to measure dose-dependent inhibition of H3K27me3 mark and cell viability respectively. Readout of DMSO wells were used to normalize the data. Resulting curves were fitted using Activity base software Model 205 (IDBS Ltd, Surrey, UK). The data was checked for quality, validated and integrated in excel format using SARview (IDBS Ltd, Surrey, UK).

[1] = EZH2 pep BSA Brij 4.0 LowE (IC50), 20 pM PRC2 wt EZH2, 0.9 μM 3H-SAM, biotinylated H3 peptide substrate, 2 μM H3K27me3 activating peptide
[2] = read-out: EZH2 pep BSA Brij 4.0 LowE (IC50); 20 pM PRC2 wt EZH2, 0.9 μM 3H-SAM, biotinylated H3 peptide substrate, 2 μM H3K27me3 activating peptide
[3] = 20 pM PRC2 wt EZH2, 0.9 μM 3H-SAM, biotinylated H3 peptide substrate, 2 μM H3K27me3 activating peptide; read-out: EZH2 pep BSA Brij 4.0 LowE (IC50)

T1 sequence (Q15910 whole entry): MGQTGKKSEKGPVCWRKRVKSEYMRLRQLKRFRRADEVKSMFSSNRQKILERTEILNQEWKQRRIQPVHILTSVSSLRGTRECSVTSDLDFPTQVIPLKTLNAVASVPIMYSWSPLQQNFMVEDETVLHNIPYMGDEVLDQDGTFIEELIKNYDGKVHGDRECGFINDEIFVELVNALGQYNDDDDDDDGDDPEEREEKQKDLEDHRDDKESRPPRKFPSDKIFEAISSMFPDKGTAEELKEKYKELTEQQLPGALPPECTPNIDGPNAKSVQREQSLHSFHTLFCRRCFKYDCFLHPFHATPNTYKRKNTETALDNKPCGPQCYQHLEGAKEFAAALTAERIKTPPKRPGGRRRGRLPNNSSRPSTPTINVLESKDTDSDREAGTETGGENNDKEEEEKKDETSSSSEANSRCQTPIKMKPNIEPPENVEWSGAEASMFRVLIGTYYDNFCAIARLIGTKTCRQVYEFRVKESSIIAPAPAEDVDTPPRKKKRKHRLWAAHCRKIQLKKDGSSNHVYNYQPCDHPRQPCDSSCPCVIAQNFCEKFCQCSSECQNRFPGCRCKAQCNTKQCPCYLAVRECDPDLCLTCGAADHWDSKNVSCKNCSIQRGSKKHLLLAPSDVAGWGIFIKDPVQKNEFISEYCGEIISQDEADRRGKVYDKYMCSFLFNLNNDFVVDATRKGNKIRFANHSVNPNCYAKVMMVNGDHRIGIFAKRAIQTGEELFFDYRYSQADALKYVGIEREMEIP
T1 sequence (O75530 whole entry partner): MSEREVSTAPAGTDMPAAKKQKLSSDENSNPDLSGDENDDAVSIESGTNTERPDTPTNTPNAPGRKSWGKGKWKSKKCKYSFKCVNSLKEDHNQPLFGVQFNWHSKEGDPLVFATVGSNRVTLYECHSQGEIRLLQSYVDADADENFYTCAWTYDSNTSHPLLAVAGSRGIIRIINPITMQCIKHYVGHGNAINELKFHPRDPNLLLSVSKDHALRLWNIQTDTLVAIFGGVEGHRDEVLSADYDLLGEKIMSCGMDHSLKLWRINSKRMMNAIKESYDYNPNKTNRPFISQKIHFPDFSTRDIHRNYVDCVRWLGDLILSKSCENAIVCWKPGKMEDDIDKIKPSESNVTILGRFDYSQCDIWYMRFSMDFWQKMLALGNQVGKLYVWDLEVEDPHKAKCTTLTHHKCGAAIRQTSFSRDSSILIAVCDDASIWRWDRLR
T1 sequence (Q15022 whole entry partner): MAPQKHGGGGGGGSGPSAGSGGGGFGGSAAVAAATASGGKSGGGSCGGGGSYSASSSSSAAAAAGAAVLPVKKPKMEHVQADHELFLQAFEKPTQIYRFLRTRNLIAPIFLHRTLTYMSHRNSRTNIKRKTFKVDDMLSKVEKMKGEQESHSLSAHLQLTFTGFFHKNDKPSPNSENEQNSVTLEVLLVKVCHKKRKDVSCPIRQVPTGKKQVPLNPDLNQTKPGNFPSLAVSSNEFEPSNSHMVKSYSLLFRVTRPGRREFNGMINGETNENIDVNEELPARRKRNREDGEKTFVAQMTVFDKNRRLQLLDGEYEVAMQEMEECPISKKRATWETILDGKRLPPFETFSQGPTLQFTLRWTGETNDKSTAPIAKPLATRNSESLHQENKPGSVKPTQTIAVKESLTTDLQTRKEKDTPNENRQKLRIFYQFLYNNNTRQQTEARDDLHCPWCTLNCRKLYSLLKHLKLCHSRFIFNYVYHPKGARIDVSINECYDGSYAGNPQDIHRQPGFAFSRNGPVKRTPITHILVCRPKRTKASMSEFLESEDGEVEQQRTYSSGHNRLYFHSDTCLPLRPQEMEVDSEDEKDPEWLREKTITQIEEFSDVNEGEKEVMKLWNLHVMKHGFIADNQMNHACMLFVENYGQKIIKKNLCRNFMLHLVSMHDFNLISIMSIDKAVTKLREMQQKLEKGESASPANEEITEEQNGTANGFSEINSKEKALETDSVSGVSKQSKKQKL
T1 sequence (Q09028 whole entry partner): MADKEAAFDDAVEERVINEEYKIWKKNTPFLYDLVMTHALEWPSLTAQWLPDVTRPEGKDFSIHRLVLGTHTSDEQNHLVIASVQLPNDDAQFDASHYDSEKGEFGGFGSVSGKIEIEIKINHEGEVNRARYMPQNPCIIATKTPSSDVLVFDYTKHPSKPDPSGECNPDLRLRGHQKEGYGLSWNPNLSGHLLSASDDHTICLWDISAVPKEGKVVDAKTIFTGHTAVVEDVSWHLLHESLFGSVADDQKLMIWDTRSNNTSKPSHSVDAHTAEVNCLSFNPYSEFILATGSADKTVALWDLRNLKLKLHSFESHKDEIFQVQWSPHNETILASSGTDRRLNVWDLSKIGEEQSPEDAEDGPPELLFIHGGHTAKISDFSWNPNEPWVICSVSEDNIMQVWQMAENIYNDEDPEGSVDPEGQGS
T1 sequence (Q6ZN18 whole entry partner): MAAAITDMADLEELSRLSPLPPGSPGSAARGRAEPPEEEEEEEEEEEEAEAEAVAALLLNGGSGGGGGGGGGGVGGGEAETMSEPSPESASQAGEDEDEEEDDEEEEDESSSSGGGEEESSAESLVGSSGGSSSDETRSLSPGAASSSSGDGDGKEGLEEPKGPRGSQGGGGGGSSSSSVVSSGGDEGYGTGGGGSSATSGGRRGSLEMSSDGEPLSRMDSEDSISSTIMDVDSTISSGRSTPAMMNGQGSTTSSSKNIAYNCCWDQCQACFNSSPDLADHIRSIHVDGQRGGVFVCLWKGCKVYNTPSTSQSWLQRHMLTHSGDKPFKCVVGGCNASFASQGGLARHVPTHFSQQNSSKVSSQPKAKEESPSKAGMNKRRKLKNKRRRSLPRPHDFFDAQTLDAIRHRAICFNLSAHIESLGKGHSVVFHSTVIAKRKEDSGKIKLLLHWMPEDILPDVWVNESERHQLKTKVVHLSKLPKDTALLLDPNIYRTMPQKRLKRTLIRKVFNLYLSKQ

Cc1cc(C)c(CNC(=O)c2c(C)n(C(C)C3CCNC(C(F)(F)F)C3)c3ccccc23)c(=O)[nH]1 (single isomer, unassigned) [Compound 17, N-((4,6-dimethyl-2-oxo-1,2-dihydropyridin-3-yl)methyl)-2-methyl-1-(1-(2-(trifluoromethyl)piperidin-4-yl)ethyl)-1H-indole-3-carboxamide]
pIC50 (PRC2 containing wt EZH2; [1]): > 7.00
pEC50 (H3K27me3 mark; Homo sapiens, HeLa, 72 h): > 6.40

Cc1cc(C)c(CNC(=O)c2c(C)n(C(C)C3CCN(C)C(C(F)(F)F)C3)c3ccccc23)c(=O)[nH]1 (single isomer, unassigned) [Compound 25, N-((4,6-dimethyl-2-oxo-1,2-dihydropyridin-3-yl)methyl)-2-methyl-1-(1-(1-methyl-2-(trifluoromethyl)piperidin-4-yl)ethyl)-1H-indole-3-carboxamide]
pIC50 (PRC2 containing wt EZH2; [1]): > 7.00
pEC50 (H3K27me3 mark; 72 hrs): < 5.70

Cc1cc(C)c(CNC(=O)c2c(C)n(C(C)C3CCN(C)C(C(F)(F)F)C3)c3ccccc23)c(=O)[nH]1 (single isomer, unassigned) [Compound 26, N-((4,6-dimethyl-2-oxo-1,2-dihydropyridin-3-yl)methyl)-2-methyl-1-(1-(1-methyl-2-(trifluoromethyl)piperidin-4-yl)ethyl)-1H-indole-3-carboxamide]
pIC50 (PRC2 containing wt EZH2; [2]): > 7.00
pEC50 (H3K27me3 mark; 72 hrs): > 6.40

COc1cc(C)[nH]c(=O)c1CNC(=O)c1c(C)n(C(C)C2CCN(C)CC2C(F)(F)F)c2ccccc12 (single isomer, unassigned) [Compound 27, N-((4-methoxy-6-methyl-2-oxo-1,2-dihydropyridin-3-yl)methyl)-2-methyl-1-(1-(1-methyl-3-(trifluoromethyl)piperidin-4-yl)ethyl)-1H-indole-3-carboxamide]
pIC50 (PRC2 containing wt EZH2; [1]): 6.00 to 7.00
pEC50 (H3K27me3 mark; Homo sapiens, HeLa, 72 h): < 5.70

COc1cc(C)[nH]c(=O)c1CNC(=O)c1c(C)n(C(C)C2CCN(C)CC2C(F)(F)F)c2ccccc12 (single isomer, unassigned) [Compound 28, N-((4-methoxy-6-methyl-2-oxo-1,2-dihydropyridin-3-yl)methyl)-2-methyl-1-(1-(1-methyl-3-(trifluoromethyl)piperidin-4-yl)ethyl)-1H-indole-3-carboxamide]
pIC50 (PRC2 containing wt EZH2; [1]): > 7.00
pEC50 (H3K27me3 mark; 72 hrs): < 5.70

COc1cc(C)[nH]c(=O)c1CNC(=O)c1c(C)n(C(C)C2CCN(C)C(c3ccc(F)cc3)C2)c2ccccc12 (single isomer, unassigned) [Compound 34, 1-(1-(2-(4-fluorophenyl)-1-methylpiperidin-4-yl)ethyl)-N-((4-methoxy-6-methyl-2-oxo-1,2-dihydropyridin-3-yl)methyl)-2-methyl-1H-indole-3-carboxamide]
pIC50 (PRC2 containing wt EZH2; [3]): 6.00 to 7.00
pEC50 (H3K27me3 mark; 72 hrs): < 5.70

COc1cc(C)[nH]c(=O)c1CNC(=O)c1c(C)n(C(C)C2CCN(C)C(c3ccc(F)cc3)C2)c2ccccc12 (single isomer, unassigned) [Compound 35, 1-(1-(2-(4-fluorophenyl)-1-methylpiperidin-4-yl)ethyl)-N-((4-methoxy-6-methyl-2-oxo-1,2-dihydropyridin-3-yl)methyl)-2-methyl-1H-indole-3-carboxamide]
pIC50 (PRC2 containing wt EZH2; [3]): > 7.00
pEC50 (H3K27me3 mark; 72 hrs): > 6.40

CCc1cc(C)[nH]c(=O)c1CNC(=O)c1c(C)n(C(C)C2CCNC(C(F)(F)F)C2)c2ccccc12 (stereo not drawn) [Compound 5, N-((4-ethyl-6-methyl-2-oxo-1,2-dihydropyridin-3-yl)methyl)-2-methyl-1-(1-(2-(trifluoromethyl)piperidin-4-yl)ethyl)-1H-indole-3-carboxamide]
pIC50 (PRC2 containing wt EZH2; [1]): > 7.00
pEC50 (H3K27me3 mark; Homo sapiens, HeLa, 72 h): > 6.40

CCCc1cc(C)[nH]c(=O)c1CNC(=O)c1c(C)n(C(C)C2CCNC(C(F)(F)F)C2)c2ccccc12 (stereo not drawn) [Compound 6, 2-methyl-N-((6-methyl-2-oxo-4-propyl-1,2-dihydropyridin-3-yl)methyl)-1-(1-(2-(trifluoromethyl)piperidin-4-yl)ethyl)-1H-indole-3-carboxamide]
pIC50 (PRC2 containing wt EZH2; [1]): > 7.00
pEC50 (H3K27me3 mark; Homo sapiens, HeLa, 72 h): > 6.40

Cc1cc(OC(F)F)c(CNC(=O)c2c(C)n(C(C)C3CCNC(C(F)(F)F)C3)c3ccccc23)c(=O)[nH]1 (stereo not drawn) [Compound 7, N-((4-(difluoromethoxy)-6-methyl-2-oxo-1,2-dihydropyridin-3-yl)methyl)-2-methyl-1-(1-(2-(trifluoromethyl)piperidin-4-yl)ethyl)-1H-indole-3-carboxamide]
pIC50 (PRC2 containing wt EZH2; [1]): > 7.00
pEC50 (H3K27me3 mark; Homo sapiens, HeLa, 72 h): > 6.40

COc1cc(C)[nH]c(=O)c1CNC(=O)c1c(C)n(C(C)C2CCN(C)C(CF)C2)c2ccccc12 (stereo not drawn) [Compound 29, 1-(1-(2-(fluoromethyl)-1-methylpiperidin-4-yl)ethyl)-N-((4-methoxy-6-methyl-2-oxo-1,2-dihydropyridin-3-yl)methyl)-2-methyl-1H-indole-3-carboxamide]
pIC50 (PRC2 containing wt EZH2; [1]): > 7.00
pEC50 (H3K27me3 mark; Homo sapiens, HeLa, 72 h): < 5.70

COc1cc(C)[nH]c(=O)c1CNC(=O)c1c(C)n(C(C)C2CCN(C)C(CO)C2)c2ccccc12 (stereo not drawn) [Compound 30, 1-(1-(2-(hydroxymethyl)-1-methylpiperidin-4-yl)ethyl)-N-((4-methoxy-6-methyl-2-oxo-1,2-dihydropyridin-3-yl)methyl)-2-methyl-1H-indole-3-carboxamide]
pIC50 (PRC2 containing wt EZH2; [1]): > 7.00
pEC50 (H3K27me3 mark; Homo sapiens, HeLa, 72 h): < 5.70

COc1cc(C)[nH]c(=O)c1CNC(=O)c1c(C)n(C(C)C2CCN(CC(F)F)C(C)C2)c2ccccc12 (stereo not drawn) [Compound 44]
pIC50 (PRC2 containing wt EZH2; [1]): > 7.00
pEC50 (H3K27me3 mark; 72 hrs): < 5.70

COc1cc(C)[nH]c(=O)c1CNC(=O)c1c(C)n(C(C)C2CCN(CC(F)(F)F)C(C)C2)c2ccccc12 (stereo not drawn) [Compound 45]
pIC50 (PRC2 containing wt EZH2; [1]): > 7.00
pEC50 (H3K27me3 mark; 72 hrs): > 6.40

COc1cc(C)[nH]c(=O)c1CNC(=O)c1c(C)n(C(C)C2CCN(CC(F)F)C(C)C2)c2ccccc12 (stereo not drawn) [Compound 46]
pIC50 (PRC2 containing wt EZH2; [2]): > 7.00
pEC50 (H3K27me3 mark; 72 hrs): > 6.40

COc1cc(C)[nH]c(=O)c1CNC(=O)c1c(C)n(C(C)C2CCN(CC(F)(F)F)C(C)C2)c2ccccc12 (stereo not drawn) [Compound 47]
pIC50 (PRC2 containing wt EZH2; [1]): 6.00 to 7.00
pEC50 (H3K27me3 mark; 72 hrs): < 5.70

COc1cc(C)[nH]c(=O)c1CNC(=O)c1c(C)n(C(C)C2CCNC(c3ccccc3F)C2)c2ccccc12 (stereo not drawn) [Compound 66]
pIC50 (PRC2 containing wt EZH2; [2]): > 7.00
pEC50 (H3K27me3 mark; Homo sapiens, HeLa, 72 h): 5.70 to 6.40

CCC1CC(C(C)n2c(C)c(C(=O)NCc3c(C)cc(C)[nH]c3=O)c3ccccc32)CCN1CC(F)F (stereo not drawn) [Compound 68]
pIC50 (PRC2 containing wt EZH2; [2]): > 7.00
pEC50 (H3K27me3 mark; 72 hrs): < 5.70

CCC1CC(C(C)n2c(C)c(C(=O)NCc3c(C)cc(C)[nH]c3=O)c3ccccc32)CCN1CC(F)F (stereo not drawn) [Compound 69]
pIC50 (PRC2 containing wt EZH2; [2]): > 7.00
pEC50 (H3K27me3 mark; 72 hrs): < 5.70

COc1cc(C)[nH]c(=O)c1CNC(=O)c1c(C)n(C(C)C2CCN(CC(C)(F)F)C(C)C2)c2ccccc12 (stereo not drawn) [Compound 70]
pIC50 (PRC2 containing wt EZH2; [1]): > 7.00
pEC50 (H3K27me3 mark; 72 hrs): 5.70 to 6.40

CCC1CC(C(C)n2c(C)c(C(=O)NCc3c(C)cc(C)[nH]c3=O)c3ccccc32)CCN1CC(F)F (stereo not drawn) [Compound 71]
pIC50 (PRC2 containing wt EZH2; [2]): > 7.00
pEC50 (H3K27me3 mark; 72 hrs): > 6.40
